Measured values published in patent US7737185B2 (Repros Therapeutics Inc., priority 2001, dated 2010).

Key:
[1] = tested on: serum cholesterol; assay: Serum cholesterol in male baboons; format: in vivo; conditions: 1.5 mg/kg for 12 days
Description: (§1) The samples analyzed were sera taken on the day of first treatment before being given test article (day 0), after 12 days of treatment (day 12) and 7 days after the last treatment (end or wash-out).

[2] = tested on: total serum testosterone; assay: Serum testosterone in male baboons given Clomid, Enclomid or Zuclomid; format: in vivo; conditions: for Effect on total serum testosterone: 1.5 mg/kg for 12 days, male baboons
Description: as §1

[3] = tested on: FSH, LH, testosterone; conditions: cited from earlier work
[4] = tested on: serum LH, FSH, PRL; assay: Serum LH, FSH and prolactin in male baboons; format: in vivo; conditions: during the study
Description: as §1

[5] = tested on: triglycerides; assay: Placebo controlled challenge study Androxal vs Androgel: triglycerides; format: in vivo, human; conditions: after two weeks of therapy, non-dose dependent; placebo 5.9% reduction
Protocol: (§2) Androgel® (Solvay Pharmaceuticals, Inc.) consists of a cream that administers exogenous testosterone in a transdermal matrix.
(§3) The study enrolled 62 hypogonadal men with testosterone levels less than 300 ng/dl (normal 298-1034 ng/dl) that were randomized into 6 different arms, three doses of Androxal™ (12.5 mg, 25 mg, and 50 mg), placebo, and both high and low doses of Androgel®. Half of the men in each of the Androxal™ and placebo arms were randomized into cohorts that underwent in-clinic sessions on days 1 and 14 to determine pharmacokinetic parameters for Androxal™ as well as cyclical changes in testosterone. The placebo and Androxal™ doses were administered in a double blind fashion. The Androgel® cream was administered in an open label fashion. Half of the Androgel® patients underwent in-clinic sessions similar to the other patients in the study. Following the two week drug exposure patients were followed for an additional seven to ten days to determine the status of their testosterone levels.

[6] = tested on: serum LH, FSH; assay: Placebo controlled challenge study Androxal vs Androgel: serum LH and FSH; format: in vivo, human
Protocol: as §2, §3

[7] = Placebo controlled challenge study Androxal vs Androgel: side effects; format: in vivo, human; conditions: hypogonadal men, two week exposure
Protocol: as §2, §3

[8] = tested on: total testosterone; assay: Placebo controlled challenge study Androxal vs Androgel: total testosterone; format: in vivo, human; conditions: for Mean increase in testosterone from baseline: hypogonadal men, two weeks
Protocol: as §2, §3

[9] = following a single dose; cited from earlier work

CCN(CC)CCOc1ccc(C(=C(Cl)c2ccccc2)c2ccccc2)cc1 [Clomid, clomiphene]
Change in serum cholesterol levels [1]: slight increase | Variability of total testosterone levels (coefficients of variation) ([2]; day 6 and later, compared to animals receiving Enclomid): more variable total testosterone levels | FSH, LH after treatment ([3]; both young and old men): increases in FSH, LH | Free and total testosterone after treatment ([3]; men, young men showing significant increases): increases in free and total testosterone

CCN(CC)CCOc1ccc(/C(=C(\Cl)c2ccccc2)c2ccccc2)cc1 [Enclomid, trans-clomiphene]
Serum prolactin (PRL) [4]: decrease in serum prolactin | Reduction in triglycerides (average decrease) [5]: 19.1% | Decrease in serum cholesterol levels [1]: 8% | Serum LH in the follow-up period ([6]; 7-10 days after cessation of daily treatment): remained high | Serum FSH in the follow-up period ([6]; after cessation of treatment): remains high | Serum levels of LH during treatment ([6]; hypogonadal male subjects (FIG. 5)): statistically significant increase | Serum levels of FSH during treatment ([6]; hypogonadal male subjects (FIG. 6)): statistically significant increase | Side effects different than placebo [7]: no side effects noted | Platelet count (12-day treatment): lowering of the platelet count | Eosinophil counts (male baboons): raising the counts | Lymphocytes, count and per cent (male baboons): increase | Red blood cell population (male baboons): substantive effects | Per cent of granulocytes in the blood (very strong after the 7-day washout period): strong effect | Effect on total serum testosterone [2]: significant increases in total serum testosterone | Change in total serum testosterone after cessation of treatment ([2]; between day 12 and day 18 (washout)): significant drop | Coefficient of variation (CV) of mean total testosterone ([8]; 50 mg dose, after 15 days): 29% | Mean total testosterone ([8]; 50 mg dose, after 15 days): 589 ± 172 ng/dL | Mean increase in testosterone from baseline ([8]; high dose (50 mg) oral): 294 ng/dL | Mean increase in testosterone from baseline ([8]; low dose (12.5 mg) oral): 169 ng/dL | Mean increase in testosterone from baseline ([8]; mid dose (25 mg) oral): 247 ng/dL

CCN(CC)CCOc1ccc(/C(=C(/Cl)c2ccccc2)c2ccccc2)cc1 [Zuclomid, cis-clomiphene, reference compound]
Increase in serum cholesterol levels [1]: 22% | Residual blood levels [9]: in excess of one month | Hematocrit (male baboons): demonstrated a statistical difference | Red blood cell population (male baboons): substantive effects | Effect on total serum testosterone [2]: did not raise total serum testosterone to any extent
